Inhibition and IC50 data for 18 compounds are collected here from patent publication US20230009626A1 (ICHNOS SCIENCES S.A., priority 2018, published 2023).

The assay concerns the target HPK1 (MAP4K1) (Homo sapiens, UniProt Q92918). Kind of assay: FRET Assay for HPK1 (MAP4K1): one step binding assay, displacement of labeled tracer. Conditions: for inhibition at 1 µM: 1 μM compound; for inhibition at 1 µM / inhibition at 10 µM: FRET ratio 665/620, percent of control; for inhibition at 10 µM: 10 μM compound; for IC50: dose response curve, nonlinear regression. In outline:
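TR-FRET tracer-displacement binding assay. GST-tagged HPK1 (10 nM) and Eu-anti-GST antibody (4 nM) were pre-incubated with compound on ice for 15 min in 50 mM HEPES pH 7.5, 10 mM MgCl2, 1 mM EGTA, 0.01% Brij-35 (3% DMSO final). Kinase Tracer 222 (20 nM) was then added for 1 h at room temperature. IC50 came from nonlinear regression of percent of control; percent inhibition was also given at 1.0 and 10.0 μM.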

HPK1 (MAP4K1), sequence (Q92918 whole entry): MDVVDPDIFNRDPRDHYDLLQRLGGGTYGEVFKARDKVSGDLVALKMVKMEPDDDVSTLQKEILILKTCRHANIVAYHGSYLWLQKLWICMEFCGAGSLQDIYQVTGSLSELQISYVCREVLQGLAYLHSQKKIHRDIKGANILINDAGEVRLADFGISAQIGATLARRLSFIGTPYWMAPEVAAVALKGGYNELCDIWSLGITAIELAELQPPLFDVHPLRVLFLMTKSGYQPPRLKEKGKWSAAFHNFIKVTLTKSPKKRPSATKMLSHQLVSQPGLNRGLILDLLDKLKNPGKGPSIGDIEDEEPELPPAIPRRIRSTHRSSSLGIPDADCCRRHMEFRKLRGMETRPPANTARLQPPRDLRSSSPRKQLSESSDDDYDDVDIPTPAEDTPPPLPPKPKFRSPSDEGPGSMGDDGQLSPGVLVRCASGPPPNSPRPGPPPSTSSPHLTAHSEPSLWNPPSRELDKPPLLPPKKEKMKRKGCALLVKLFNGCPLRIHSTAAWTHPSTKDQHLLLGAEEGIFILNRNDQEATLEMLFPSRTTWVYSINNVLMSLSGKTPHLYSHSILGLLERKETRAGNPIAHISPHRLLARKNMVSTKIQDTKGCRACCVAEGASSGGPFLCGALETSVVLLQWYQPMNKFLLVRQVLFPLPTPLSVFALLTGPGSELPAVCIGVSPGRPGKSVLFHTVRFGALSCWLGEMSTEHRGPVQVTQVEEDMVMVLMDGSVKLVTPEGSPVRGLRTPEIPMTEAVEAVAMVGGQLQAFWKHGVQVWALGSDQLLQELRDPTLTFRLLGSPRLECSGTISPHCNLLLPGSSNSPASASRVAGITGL

Turning to `C/C(Nc1cnn(C)c1)=C1/C(=O)Nc2cnc(-c3cc(C#N)ccc3C)cc21` [Example 187, (Z)-4-Methyl-3-(3-(1-((1-methyl-1H-pyrazol-4-yl)amino)ethylidene)-2-oxo-2,3-dihydro-1H-pyrrolo[2,3-c]pyridin-5-yl)benzonitrile], the inhibition (commonly the relative decrease from the control value, in per cent) at 1 µM came out at 66.4% and the inhibition at 10 µM is 19.6%.
Take `C/C(Nc1cnn(C)c1)=C1/C(=O)Nc2cnc(-c3cnn(C)c3C)cc21` [Example 41, (Z)-5-(1,5-Dimethyl-1H-pyrazol-4-yl)-3-(1-((1-methyl-1H-pyrazol-4-yl)amino)ethylidene)-1H-pyrrolo[2,3-c]pyridin-2(3H)-one]: the inhibition at 1 µM was determined as 69.9%; the inhibition at 10 µM worked out at 77%; the IC50 (as a rule, the midpoint of a concentration-inhibition curve) fell in the range of 50 to 100 nM.
Regarding `C/C(Nc1ccn(C2CCN(C3COC3)CC2)n1)=C1/C(=O)Nc2cnc(-c3cnccc3C)cc21` [Example 147, (Z)-5-(4-Methylpyridin-3-yl)-3-(1-((1-(1-(oxetan-3-yl)piperidin-4-yl)-1H-pyrazol-3-yl)amino)ethylidene)-1H-pyrrolo[2,3-c]pyridin-2(3H)-one], the inhibition at 1 µM worked out at 74.9%, the inhibition at 10 µM turned out to be 75.9% and the IC50 was less than 50 nM.
For `C/C(Nc1cc(C)n(C(C)C)n1)=C1/C(=O)Nc2cnc(-c3cnccc3C)cc21` [Example 211, (Z)-3-(1-((1-Isopropyl-5-methyl-1H-pyrazol-3-yl)amino)ethylidene)-5-(4-methylpyridin-3-yl)-1H-pyrrolo[2,3-c]pyridin-2(3H)-one], the inhibition at 1 µM amounted to 76.9%, the inhibition at 10 µM stood at 79.4% and the IC50 is less than 50 nM.
Regarding `COc1cccc(F)c1-c1cc2c(cn1)NC(=O)/C2=C(/C)Nc1cnn(C[C@H](C)O)c1` [Example 173, (S,Z)-5-(2-Fluoro-6-methoxyphenyl)-3-(1-((1-(2-hydroxypropyl)-1H-pyrazol-4-yl)amino)ethylidene)-1H-pyrrolo[2,3-c]pyridin-2(3H)-one], the inhibition at 1 µM turned out to be 66.8%, the inhibition at 10 µM is 77.4% and the IC50 was less than 50 nM.
Consider `COc1ccncc1-c1cc2c(cn1)NC(=O)/C2=C(/C)Nc1ccn(C)n1` [Example 68, (Z)-5-(4-Methoxypyridin-3-yl)-3-(1-((1-methyl-1H-pyrazol-3-yl)amino)ethylidene)-1H-pyrrolo[2,3-c]pyridin-2(3H)-one], for which the inhibition at 1 µM was 77.5%, the inhibition at 10 µM came out at 75.3% and the IC50 is less than 50 nM.
Take `C/C(Nc1ccn(C)n1)=C1/C(=O)Nc2ccc(-c3cnccc3C)nc21` [Example 63, (Z)-3-(1-((1-Methyl-1H-pyrazol-34yl)amino)ethylidene)-5-(4-methylpyridin-3-yl)-1H-pyrrolo[3,2-b]pyridin-2(3H)-one]: the inhibition at 1 µM came out at 89.8%, the inhibition at 10 µM was 97.1% and the IC50 was less than 50 nM.
For the compound `C/C(Nc1ccc(N2CCNCC2)nc1)=C1/C(=O)Nc2cnc(-c3cnccc3C)cc21` [Example 46, (Z)-5-(4-Methylpyridin-3-yl)-3-(1-((6-(piperazin-1-yl)pyridin-3-yl)amino)ethylidene)-1H-pyrrolo[2,3-c]pyridin-2(3H)-one], the inhibition at 1 µM stood at 85.3%, the inhibition at 10 µM came to 87.3% and the IC50 is less than 50 nM.
On to `C/C(Nc1ccn(CC(=O)N(C)C)n1)=C1/C(=O)Nc2cnc(-c3cnccc3C)cc21` [Example 128, (Z)-N,N-Dimethyl-2-(3-((1-(5-(4-methylpyridin-3-yl)-2-oxo-1H-pyrrolo[2,3-c]pyridin-3(2H)-ylidene)ethyl)amino)-1H-pyrazol-1-yl)acetamide], for which the inhibition at 1 µM was determined as 79.2%, the inhibition at 10 µM turned out to be 89.8% and the IC50 is less than 50 nM.
Take `COc1cccc(F)c1-c1cc2c(cn1)NC(=O)/C2=C(/C)Nc1cnn(C2COC2)c1` [Example 27, (Z)-5-(2-Fluoro-6-methoxyphenyl)-3-(1-((1-(oxetan-3-yl)-1H-pyrazol-4-yl)amino)ethylidene)-1H-pyrrolo[2,3-c]pyridin-2(3H)-one]: the inhibition at 1 µM came to 88.4%, the inhibition at 10 µM was determined as 96.3% and the IC50 is less than 50 nM.
`CCOc1cccc(F)c1-c1cc2c(cn1)NC(=O)/C2=C(/C)Nc1cnn(C)c1` [Example 25, (Z)-5-(2-Ethoxy-6-fluorophenyl)-3-(1-((1-methyl-1H-pyrazol-4-yl)amino)ethylidene)-1H-pyrrolo[2,3-c]pyridin-2(3H)-one]: the inhibition at 1 µM worked out at 87.1%, the inhibition at 10 µM came to 85.3% and the IC50 is less than 50 nM.
As to `C/C(NCCN1CCOCC1)=C1/C(=O)Nc2cnc(-c3cnccc3C)cc21` [Example 86, (Z)-5-(4-Methylpyridin-3-yl)-3-(1-((2-morpholinoethyl)amino)ethylidene)-1H-pyrrolo[2,3-c]pyridin-2(3H)-one], the inhibition at 1 µM was determined as 51.5%, the inhibition at 10 µM stood at 74% and the IC50 was more than 500 nM.
For the compound `C/C(Nc1cnn(C)c1)=C1/C(=O)Nc2cccc(-c3cnccc3C)c21` [Example 159, (Z)-3-(1-((1-Methyl-1H-pyrazol-4-yl)amino)ethylidene)-4-(4-methylpyridin-3-yl)indolin-2-one], the inhibition at 1 µM stood at 62.8%, the inhibition at 10 µM worked out at 87.4% and the IC50 was more than 500 nM.
Turning to `C/C(Nc1ccc(N2CCN(C3CC3)CC2)nc1)=C1/C(=O)Nc2cnc(-c3cnccc3C)cc21` [Example 96, (Z)-3-(1-((6-(4-Cyclopropylpiperazin-1-yl)pyridin-3-yl)amino)ethylidene)-5-(4-methylpyridin-3-yl)-1H-pyrrolo[2,3-c]pyridin-2(3H)-one], the inhibition at 1 µM came to 68.6%, the inhibition at 10 µM was found to be 73.5% and the IC50 is less than 50 nM.
`C/C(Nc1cc(C)n(CC(C)C)n1)=C1/C(=O)Nc2cnc(-c3c(C)cccc3F)cc21` [Example 202, (Z)-5-(2-Fluoro-6-methylphenyl)-3-(1-((1-isobutyl-5-methyl-1H-pyrazol-3-yl)amino)ethylidene)-1H-pyrrolo[2,3-c]pyridin-2(3H)-one]: the inhibition at 1 µM worked out at 75.7%, the inhibition at 10 µM turned out to be 61% and the IC50 was less than 50 nM.
For `C/C(Nc1ccn(C)n1)=C1/C(=O)Nc2ccc(-c3cnccc3C)cc21` [Example 100, (Z)-3-(1-((1-Methyl-1H-pyrazol-3-yl)amino)ethylidene)-5-(4-methylpyridin-3-yl)indolin-2-one], in that order: 72.8%, 77% and less than 50 nM.
Consider `COc1cccc(F)c1-c1cc2c(cn1)NC(=O)/C2=C(/C)Nc1cnn(C)c1` [Example 16, (Z)-5-(2-Fluoro-6-methoxyphenyl)-3-(1-((1-methyl-1H-pyrazol-4-yl)amino)ethylidene)-1H-pyrrolo[2,3-c]pyridin-2(3H)-one], for which the inhibition at 1 µM was 85.3%, the inhibition at 10 µM is 88.9% and the IC50 is less than 50 nM.
As for `C/C(Nc1cnn(CCC(C)(C)O)c1)=C1/C(=O)Nc2cnc(-c3cnccc3C)cc21` [Example 166, (Z)-3-(1-((1-(3-Hydroxy-3-methylbutyl)-1H-pyrazol-4-yl)amino)ethylidene)-5-(4-methylpyridin-3-yl)-1H-pyrrolo[2,3-c]pyridin-2(3H)-one], the inhibition at 1 µM was found to be 62.9%, the inhibition at 10 µM worked out at 75.7% and the IC50 is less than 50 nM.
